Source: patent US10611733B2, “Quinazolinone analogs and use of quinazolinone analogs for treating or preventing certain viral infections” (priority 2011, dated 2020)

Key:
[1] = test system: HCV Con 1b (Replicon); test: HCV Con 1b (Replicon) RNA end-point; format: cell-based, Hepatitis C Virus; conditions: HCV Con 1b replicon, RNA end-point; for CC50: read-out: TC50 (the source's name)
Procedure: The reduction in HCV was determined with two assays using viral RNA endpoints. […] This cell line expresses a subgenomic section of the HCV genome containing NS2a, NS2b, NS3a, NS3b, NS4a, NS4b, NS5a and NS5b.

[2] = biological target: HCV Con1b (Replicon); test: HCV Con1b (Replicon) Luciferase end-point; format: cell-based, Hepatitis C Virus; conditions: for CC50: read-out: TC50 (the source's name)
[3] = test system: WNV; test: WNV antiviral assay; format: cell-based, West Nile Virus; conditions: for CC50: read-out: TC50 (the source's name)
From the text: (§1) The use of N-(2,3-dihydro-1H-inden-5-yl)-2-(4-oxo-3-phenyl-3,4-dihydroquinazolin-2-yl)thio) acetamide, a compound employed according to the present disclosure, for treating West Nile Virus has been disclosed. For example, please see Chung et al. A Cell Based Assay for the Identification of Lead Compounds with Anti-Viral Activity Against West Nile Virus, Probe Reports from the NIH Molecular Libraries Program[Internet]. Bethesda (Md.): National Center for Biotechnology Information (US); 2010-2010 Feb. 27 [updated 2010 Oct. 4], PMID: 21433390 [PubMed].

[4] = test system: JEV; test: JEV cell based virus CPE reduction assay; parameters: species or system Japanese Encephalitis Virus
From the text: as §1

SMILES	IC50 [2] [µM]	CC50 [2] [µM]	IC50 [3] [µM]	CC50 [3] [µM]	further results
O=C(CSc1nc2ccccc2c(=O)n1-c1ccc(F)c(F)c1)Nc1cccc2c1CCC2 [Example C26, 2-[3-(3,4-difluorophenyl)-4-oxo(3-hydroquinazolin-2-ylthio)]-N-indan-4-ylacetamide]	< 1	≥ 100	–	–	IC50 [1]: < 1 µM; CC50 [1]: 50 to 100 µM
O=C(CSc1nc2cccc(F)c2c(=O)n1-c1cc(F)c(F)c(F)c1)Nc1ccc2c(c1)CCC2 [Example C30, 2-[5-fluoro-4-oxo-3-(3,4,5-trifluorophenyl)(3-hydroquinazolin-2-ylthio)]-N-indan-5-ylacetamide]	1 to 5	50 to 100	–	–	–
O=C(CSc1nc2cccc(F)c2c(=O)n1-c1ccc(Cl)c(Cl)c1)Nc1ccc2c(c1)CCC2 [Example C31]	< 1	10 to 50	5 to 25	≥ 100	–
O=C(CSc1nc2ccccc2c(=O)n1-c1ccc(Cl)c(Cl)c1)Nc1ccc2scnc2c1 [Example C46, N-benzothiazol-5-yl-2-[3-(3,4-dichlorophenyl)-4-oxo(3-hydroquinazolin-2-ylthio)]acetamide]	1 to 5	≥ 100	–	–	–
Cc1ccc(-n2c(SCC(=O)Nc3ccc4c(c3)CCC4)nc3ccccc3c2=O)cc1Br [Example C36, 2-[3-(3-bromo-4-methylphenyl)-4-oxo(3-hydroquinazolin-2-ylthio)]-N-indan-5-ylacetamide]	–	–	5 to 25	≥ 100	–
O=C(CSc1nc2ccccc2c(=O)n1-c1ccc(F)c(Cl)c1)Nc1ccc2c(c1)CCC2 [Example C12, 2-[3-(3-chloro-4-fluorophenyl)-4-oxo(3-hydroquinazolin-2-ylthio)]-N-indan-5-ylacetamide]	1 to 5	≥ 100	5 to 25	≥ 100	IC50 [1]: < 1 µM; CC50 [1]: 50 to 100 µM
O=C(CSc1nc2ccccc2c(=O)n1-c1ccc(Cl)c(Cl)c1)Nc1cccc2c1CCC2 [Example C18, 2-[3-(3,4-dichlorophenyl)-4-oxo(3-hydroquinazolin-2-ylthio)]-N-indan-4-ylacetamide]	5 to 25	50 to 100	–	–	–
O=C(CSc1nc2ccccc2c(=O)n1-c1ccc(Cl)c(Br)c1)Nc1ccc2c(c1)CCC2 [Example C41, 2-[3-(3-bromo-4-chlorophenyl)-4-oxo(3-hydroquinazolin-2-ylthio)]-N-indan-5-ylacetamide]	–	–	5 to 25	≥ 100	–
Cc1cc(-n2c(SCC(=O)Nc3ccc4c(c3)CCC4)nc3ccccc3c2=O)ccc1F [Example C34, 2-[3-(4-fluoro-3-methylphenyl)-4-oxo(3-hydroquinazolin-2-ylthio)]-N-indan-5-ylacetamide]	–	–	5 to 25	≥ 100	–
O=C(CSc1nc2ccccc2c(=O)n1-c1c(Cl)cccc1Cl)Nc1ccc2c(c1)CCC2 [Example C40, 2-[3-(2,6-dichlorophenyl)-4-oxo(3-hydroquinazolin-2-ylthio)]-N-indan-5-ylacetamide]	–	–	5 to 25	≥ 100	–
O=C(CSc1nc2c(F)cccc2c(=O)n1-c1ccccc1)Nc1ccc2c(c1)CCC2 [Example C42, 2-(8-fluoro-4-oxo-3-phenyl(3-hydroquinazolin-2-ylthio))-N-indan-5-ylacetamide]	–	–	5 to 25	≥ 100	–
O=C(CSc1nc2c(F)cccc2c(=O)n1-c1ccc(Cl)c(Cl)c1)Nc1ccc2c(c1)CCC2 [Example C37, 2-[3-(3,4-dichlorophenyl)-8-fluoro-4-oxo(3-hydroquinazolin-2-ylthio)]-N-indan-5-ylacetamide]	–	–	5 to 25	10 to 50	–
O=C(CSc1nc2ccccc2c(=O)n1-c1cc(F)cc(F)c1)Nc1ccc2c(c1)CCC2 [Example C38, 2-[3-(3,5-difluorophenyl)-4-oxo(3-hydroquinazolin-2-ylthio)]-N-indan-5-ylacetamide]	–	–	5 to 25	≥ 100	–
O=C(CCSc1nc2ccccc2c(=O)n1-c1ccc(F)c(Cl)c1)Nc1ccc2c(c1)CCC2 [Example C21, 3-[3-(3-chloro-4-fluorophenyl)-4-oxo(3-hydroquinazolin-2-ylthio)]-N-indan-5-ylpropanamide]	5 to 25	10 to 50	–	–	–
Cc1cc(-n2c(SCC(=O)Nc3ccc4c(c3)CCC4)nc3ccccc3c2=O)ccc1Cl [Example C33, 2-[3-(4-chloro-3-methylphenyl)-4-oxo(3-hydroquinazolin-2-ylthio)]-N-indan-5-ylacetamide]	–	–	1 to 5	50 to 100	–
O=C(CSc1nc2c(F)cccc2c(=O)n1-c1cc(Cl)cc(Cl)c1)Nc1ccc2c(c1)CCC2 [Example C39, 2-[3-(3,5-dichlorophenyl)-8-fluoro-4-oxo(3-hydroquinazolin-2-ylthio)]-N-indan-5-ylacetamide]	–	–	5 to 25	50 to 100	–

SMILES	IC50 [2] [µM]	CC50 [2] [µM]	IC50 [3] [µM]	CC50 [3] [µM]	further results
O=C(CSc1nc2ccccc2c(=O)n1-c1cc(F)c(F)cn1)Nc1ccc2c(c1)CCC2 [Example C43, 2-[3-(4,5-difluoro(2-pyridyl))-4-oxo(3-hydroquinazolin-2-ylthio)]-N-indan-5-ylacetamide]	–	–	5 to 25	≥ 100	–
O=C(CSc1nc2ccccc2c(=O)n1-c1ccc(Cl)c(Cl)c1)Nc1ccc2c(c1)CCC2 [Example C13, 2-[3-(3,4-dichlorophenyl)-4-oxo(3-hydroquinazolin-2-ylthio)]-N-indan-5-ylacetamide]	1 to 5	50 to 100	5 to 25	≥ 100	–
O=C(CSc1nc2cccc(F)c2c(=O)n1-c1ccccc1)NC1CCCc2ccccc21 (stereo not shown) [Example C28, 2-(5-fluoro-4-oxo-3-phenyl(3-hydroquinazolin-2-ylthio))-N-(1,2,3,4-tetrahydronaphthyl)acetamide]	5 to 25	≥ 100	–	–	–
O=C(CSc1nc2ccccc2c(=O)n1-c1ccccc1)Nc1ccc2c(c1)CCC2 [Example C32, N-indan-5-yl-2-(4-oxo-3-phenyl(3-hydroquinazolin-2-ylthio))acetamide]	–	–	5 to 25	≥ 100	–
O=C(CSc1nc2ccccc2c(=O)n1-c1ccc(Cl)c(Cl)c1)Nc1ccc2c(c1)OCO2 [Example C19, N-(2H-benzo[d]1,3-dioxolen-5-yl)-2-[3-(3,4-dichlorophenyl)-4-oxo(3-hydroquinazolin-2-ylthio)]acetamide]	1 to 5	≥ 100	–	–	–
O=C(CSc1nc2ccccc2c(=O)n1-c1cc(Cl)cc(Cl)c1)Nc1ccc2c(c1)CCC2 [Example C20, 2-[3-(3,5-dichlorophenyl)-4-oxo(3-hydroquinazolin-2-ylthio)]-N-indan-5-ylacetamide]	–	–	1 to 5	≥ 100	–
O=C(CSc1nc2ccccc2c(=O)n1-c1cc(F)c(F)c(F)c1)Nc1ccc2c(c1)CCC2 [Example C35, N-indan-5-yl-2-[4-oxo-3-(3,4,5-trifluorophenyl)(3-hydroquinazolin-2-ylthio)]acetamide]	–	–	5 to 25	≥ 100	–
O=C(CSc1nc2ccccc2c(=O)n1-c1ccc(F)c(Cl)c1)Nc1ccc2c(c1)OCO2 [Example C23, N-(2H-benzo[3,4-d]1,3-dioxolan-5-yl)-2-[3-(3-chloro-4-fluorophenyl)-4-oxo(3-hydroquinazolin-2-ylthio)]acetamide]	5 to 25	≥ 100	–	–	–
O=C(CSc1nc2ccccc2c(=O)n1-c1ccc(Cl)c(Cl)c1)Nc1nc(-c2ccccc2)cs1 [Example C45, 2-[3-(3,4-dichlorophenyl)-4-oxo(3-hydroquinazolin-2-ylthio)]-N-(4-phenyl(1,3-thiazol-2-yl))acetamide]	< 1	≥ 100	–	–	IC50 [1]: < 1 µM; CC50 [1]: 50 to 100 µM
O=C(CSc1nc2ccccc2c(=O)n1-c1ccccc1F)Nc1ccc2c(c1)CCC2 [Example C11, 2-[3-(2-fluorophenyl)-4-oxo(3-hydroquinazolin-2-ylthio)]-N-indan-5-ylacetamide]	–	–	5 to 25	≥ 100	–
O=C(CCSc1nc2ccccc2c(=O)n1-c1cc(F)c(F)c(F)c1)Nc1ccc2c(c1)CCC2 [Example C25, N-indan-5-yl-3-[4-oxo-3-(3,4,5-trifluorophenyl)(3-hydroquinazolin-2-ylthio)]propanamide]	–	–	–	–	IC50 [4]: 5 to 25 µM; CC50 ([4]; read-out: TC50 (the source's name)): ≥ 100 µM
Cc1cccc2c(=O)n(-c3ccccc3)c(SCC(=O)Nc3ccc4c(c3)CCC4)nc12 [Example C16, N-indan-5-yl-2-(8-methyl-4-oxo-3-phenyl(3-hydroquinazolin-2-ylthio))acetamide]	1 to 5	10 to 50	–	–	–
O=C(CSc1nc2ccccc2c(=O)n1-c1ccc(F)c(Cl)c1)Nc1cccc2c1CCC2 [Example C22, 2-[3-(3-chloro-4-fluorophenyl)-4-oxo(3-hydroquinazolin-2-ylthio)]-N-indan-4-ylacetamide]	1 to 5	10 to 50	–	–	–
O=C(CSc1nc2cccc(F)c2c(=O)n1-c1ccc(Cl)c(F)c1)Nc1ccc2c(c1)CCC2 [Example C29, 2-[3-(4-chloro-3-fluorophenyl)-5-fluoro-4-oxo(3-hydroquinazolin-2-ylthio)]-N-indan-5-ylacetamide]	1 to 5	≥ 100	–	–	–
O=C(CSc1nc2ccccc2c(=O)n1-c1ccc(F)c(F)c1)Nc1ccc2c(c1)CCC2 [Example C27, 2-[3-(3,4-difluorophenyl)-4-oxo(3-hydroquinazolin-2-ylthio)]-N-indan-5-ylacetamide]	5 to 25	≥ 100	5 to 25	≥ 100	–
